Measurements taken from ChEMBL document CHEMBL1141033, “First-in-class pan caspase inhibitor developed for the treatment of liver disease” (J Med Chem, 2005).

These compounds were tested against Caspase-8 (Homo sapiens) (UniProt Q14790) (assay: Inhibitory activity against Caspase-8). Conditions: not given.
Chain of Caspase-8 (Homo sapiens) (Q14790 217-374 limits assumed): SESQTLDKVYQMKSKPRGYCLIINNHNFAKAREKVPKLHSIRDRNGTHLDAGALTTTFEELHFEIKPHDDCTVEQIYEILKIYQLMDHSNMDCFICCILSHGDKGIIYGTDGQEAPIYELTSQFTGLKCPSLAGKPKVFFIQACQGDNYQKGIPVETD
Chain of Caspase-8 (Homo sapiens) (Q14790 385-479 limits assumed): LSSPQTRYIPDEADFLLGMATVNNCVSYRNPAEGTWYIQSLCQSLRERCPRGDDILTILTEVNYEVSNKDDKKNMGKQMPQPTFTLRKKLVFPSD

SMILES	k3/Ki [M⁻¹ s⁻¹]
C[C@H](NC(=O)C(=O)Nc1ccccc1Cl)C(=O)N[C@@H](CC(=O)O)C(=O)COP(=O)(c1ccccc1)c1ccccc1	1.41e+06
C[C@H](NC(=O)C(=O)Nc1ccccc1)C(=O)N[C@@H](CC(=O)O)C(=O)COc1c(F)c(F)cc(F)c1F	65300
C[C@H](NC(=O)C(=O)NCc1ccccc1)C(=O)N[C@@H](CC(=O)O)C(=O)COc1c(F)c(F)cc(F)c1F	32500
C[C@H](NC(=O)C(=O)Nc1ccccc1F)C(=O)N[C@@H](CC(=O)O)C(=O)COc1c(F)c(F)cc(F)c1F	114000

Now from value to compound:

k3/Ki [M⁻¹ s⁻¹]	SMILES
201000	C[C@H](NC(=O)C(=O)Nc1ccccn1)C(=O)N[C@@H](CC(=O)O)C(=O)COc1c(F)c(F)cc(F)c1F
332000	C[C@H](NC(=O)C(=O)Nc1ccccc1C(F)(F)F)C(=O)N[C@@H](CC(=O)O)C(=O)COc1c(F)c(F)cc(F)c1F

These compounds were tested against T1, Caspase-1 (Mus musculus) (UniProt P29452) (assay: Inhibitory activity against murine Caspase-1). Conditions: not given.
T1 sequence (whole entry): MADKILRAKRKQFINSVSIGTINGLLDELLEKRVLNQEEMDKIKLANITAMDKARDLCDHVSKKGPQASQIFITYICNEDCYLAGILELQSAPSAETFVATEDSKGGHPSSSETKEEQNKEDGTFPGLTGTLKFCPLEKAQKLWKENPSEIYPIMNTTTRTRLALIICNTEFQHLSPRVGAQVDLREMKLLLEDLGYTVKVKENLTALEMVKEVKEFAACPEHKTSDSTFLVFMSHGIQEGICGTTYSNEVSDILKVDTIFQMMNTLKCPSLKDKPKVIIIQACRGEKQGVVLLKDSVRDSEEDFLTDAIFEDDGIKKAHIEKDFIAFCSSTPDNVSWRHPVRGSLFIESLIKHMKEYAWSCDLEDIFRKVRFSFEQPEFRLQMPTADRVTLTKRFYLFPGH

SMILES	k3/Ki [M⁻¹ s⁻¹]
C[C@H](NC(=O)C(=O)Nc1ccccc1Cl)C(=O)N[C@@H](CC(=O)O)C(=O)COP(=O)(c1ccccc1)c1ccccc1	3.96e+06
C[C@H](NC(=O)C(=O)Nc1ccccc1)C(=O)N[C@@H](CC(=O)O)C(=O)COc1c(F)c(F)cc(F)c1F	127000
C[C@H](NC(=O)C(=O)NCc1ccccc1)C(=O)N[C@@H](CC(=O)O)C(=O)COc1c(F)c(F)cc(F)c1F	674000
C[C@H](NC(=O)C(=O)Nc1ccccc1F)C(=O)N[C@@H](CC(=O)O)C(=O)COc1c(F)c(F)cc(F)c1F	1.14e+06

Next, values leading:

k3/Ki [M⁻¹ s⁻¹]	SMILES
468000	C[C@H](NC(=O)C(=O)Nc1ccccn1)C(=O)N[C@@H](CC(=O)O)C(=O)COc1c(F)c(F)cc(F)c1F
9.95e+06	C[C@H](NC(=O)C(=O)Nc1ccccc1C(F)(F)F)C(=O)N[C@@H](CC(=O)O)C(=O)COc1c(F)c(F)cc(F)c1F

Each compound was assayed on Rattus norvegicus (assay: Effective dose required for pancaspase inhibition in a-Fas liver upon i.p. administration; range = 0.03-0.05). Conditions: ip.
Assay type: functional

SMILES	ED50 [mg/kg]
C[C@H](NC(=O)C(=O)Nc1ccccc1Cl)C(=O)N[C@@H](CC(=O)O)C(=O)COP(=O)(c1ccccc1)c1ccccc1	0.04

The compounds below were run on THP-1 (assay: Inhibitory concentration against THP-1 cells). Conditions: Homo sapiens.
Assay type: functional, cell-based

SMILES	IC50 [nM]
C[C@H](NC(=O)C(=O)Nc1ccccc1Cl)C(=O)N[C@@H](CC(=O)O)C(=O)COP(=O)(c1ccccc1)c1ccccc1	1040
C[C@H](NC(=O)C(=O)Nc1ccccc1)C(=O)N[C@@H](CC(=O)O)C(=O)COc1c(F)c(F)cc(F)c1F	140
C[C@H](NC(=O)C(=O)NCc1ccccc1)C(=O)N[C@@H](CC(=O)O)C(=O)COc1c(F)c(F)cc(F)c1F	160
C[C@H](NC(=O)C(=O)Nc1ccccc1F)C(=O)N[C@@H](CC(=O)O)C(=O)COc1c(F)c(F)cc(F)c1F	160

Further compounds by falling IC50, results first:

IC50 [nM]	SMILES
200	C[C@H](NC(=O)C(=O)Nc1ccccn1)C(=O)N[C@@H](CC(=O)O)C(=O)COc1c(F)c(F)cc(F)c1F
190	C[C@H](NC(=O)C(=O)Nc1ccccc1C(F)(F)F)C(=O)N[C@@H](CC(=O)O)C(=O)COc1c(F)c(F)cc(F)c1F

What follows are compounds tested against T2, Caspase-3 (Homo sapiens) (UniProt P42574) (assay: Inhibitory activity against Caspase-3). Conditions: not given.
T2 sequence (whole entry): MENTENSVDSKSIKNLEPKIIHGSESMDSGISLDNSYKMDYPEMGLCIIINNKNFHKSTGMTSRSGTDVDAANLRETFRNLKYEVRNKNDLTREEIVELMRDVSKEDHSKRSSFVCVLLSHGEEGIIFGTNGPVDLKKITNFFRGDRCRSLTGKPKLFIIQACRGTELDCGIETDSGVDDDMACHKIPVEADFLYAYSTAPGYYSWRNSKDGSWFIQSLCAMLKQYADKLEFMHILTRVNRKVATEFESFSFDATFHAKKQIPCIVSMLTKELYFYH

SMILES	k3/Ki [M⁻¹ s⁻¹]
C[C@H](NC(=O)C(=O)Nc1ccccc1Cl)C(=O)N[C@@H](CC(=O)O)C(=O)COP(=O)(c1ccccc1)c1ccccc1	211000
C[C@H](NC(=O)C(=O)Nc1ccccc1)C(=O)N[C@@H](CC(=O)O)C(=O)COc1c(F)c(F)cc(F)c1F	25400
C[C@H](NC(=O)C(=O)NCc1ccccc1)C(=O)N[C@@H](CC(=O)O)C(=O)COc1c(F)c(F)cc(F)c1F	35500
C[C@H](NC(=O)C(=O)Nc1ccccc1F)C(=O)N[C@@H](CC(=O)O)C(=O)COc1c(F)c(F)cc(F)c1F	70000

Further lines, results first:

k3/Ki [M⁻¹ s⁻¹]	SMILES
44000	C[C@H](NC(=O)C(=O)Nc1ccccn1)C(=O)N[C@@H](CC(=O)O)C(=O)COc1c(F)c(F)cc(F)c1F
309000	C[C@H](NC(=O)C(=O)Nc1ccccc1C(F)(F)F)C(=O)N[C@@H](CC(=O)O)C(=O)COc1c(F)c(F)cc(F)c1F

These compounds were tested against T3, Caspase-6 (Homo sapiens) (UniProt P55212) (assay: Inhibitory activity against Caspase-6). Conditions: not given.
T3 sequence (whole entry): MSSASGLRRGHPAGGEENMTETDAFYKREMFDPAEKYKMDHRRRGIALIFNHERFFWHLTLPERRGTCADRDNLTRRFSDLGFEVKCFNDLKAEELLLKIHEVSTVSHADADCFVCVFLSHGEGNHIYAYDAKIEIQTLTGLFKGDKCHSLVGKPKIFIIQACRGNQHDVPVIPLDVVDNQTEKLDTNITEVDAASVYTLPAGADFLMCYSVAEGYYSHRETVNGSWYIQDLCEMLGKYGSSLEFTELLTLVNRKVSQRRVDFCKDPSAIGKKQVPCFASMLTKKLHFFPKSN

SMILES	k3/Ki [M⁻¹ s⁻¹]
C[C@H](NC(=O)C(=O)Nc1ccccc1Cl)C(=O)N[C@@H](CC(=O)O)C(=O)COP(=O)(c1ccccc1)c1ccccc1	37100
C[C@H](NC(=O)C(=O)Nc1ccccc1)C(=O)N[C@@H](CC(=O)O)C(=O)COc1c(F)c(F)cc(F)c1F	31700
C[C@H](NC(=O)C(=O)NCc1ccccc1)C(=O)N[C@@H](CC(=O)O)C(=O)COc1c(F)c(F)cc(F)c1F	37100
C[C@H](NC(=O)C(=O)Nc1ccccc1F)C(=O)N[C@@H](CC(=O)O)C(=O)COc1c(F)c(F)cc(F)c1F	19800

Other lines, results leading:

k3/Ki [M⁻¹ s⁻¹]	SMILES
23700	C[C@H](NC(=O)C(=O)Nc1ccccn1)C(=O)N[C@@H](CC(=O)O)C(=O)COc1c(F)c(F)cc(F)c1F
45600	C[C@H](NC(=O)C(=O)Nc1ccccc1C(F)(F)F)C(=O)N[C@@H](CC(=O)O)C(=O)COc1c(F)c(F)cc(F)c1F

These compounds were tested on Jurkat (assay: Inhibitory concentration against JFas cells). Conditions: Homo sapiens.
Assay type: functional, cell-based

SMILES	IC50 [nM]
C[C@H](NC(=O)C(=O)Nc1ccccc1Cl)C(=O)N[C@@H](CC(=O)O)C(=O)COP(=O)(c1ccccc1)c1ccccc1	68
C[C@H](NC(=O)C(=O)Nc1ccccc1)C(=O)N[C@@H](CC(=O)O)C(=O)COc1c(F)c(F)cc(F)c1F	670
C[C@H](NC(=O)C(=O)NCc1ccccc1)C(=O)N[C@@H](CC(=O)O)C(=O)COc1c(F)c(F)cc(F)c1F	300
C[C@H](NC(=O)C(=O)Nc1ccccc1F)C(=O)N[C@@H](CC(=O)O)C(=O)COc1c(F)c(F)cc(F)c1F	160

Further lines, results first:

IC50 [nM]	SMILES
1040	C[C@H](NC(=O)C(=O)Nc1ccccn1)C(=O)N[C@@H](CC(=O)O)C(=O)COc1c(F)c(F)cc(F)c1F
61	C[C@H](NC(=O)C(=O)Nc1ccccc1C(F)(F)F)C(=O)N[C@@H](CC(=O)O)C(=O)COc1c(F)c(F)cc(F)c1F
